Assays:
[1] = Antiproliferative activity against mouse P388 cells assessed as reduction in cell viability measured after 72 hrs; type: functional, cell-based; conditions: time 72 hrs
HL-60 = assay: Antiproliferative activity against human HL-60 cells assessed as reduction in cell viability measured after 72 hrs; type: functional, cell-based; conditions: HL-60, time 72 hrs
P388/ADR = assay: Antiproliferative activity against mouse P388/ADR cells assessed as reduction in cell viability measured after 72 hrs; type: functional, cell-based; conditions: time 72 hrs
[2] = Antiproliferative activity against human MRC5 cells assessed as reduction in cell viability; type: toxicity, cell-based
HCT-116 [3] = assay: Antiproliferative activity against human HCT-116 cells assessed as reduction in cell viability; type: functional, cell-based; conditions: Homo sapiens, HCT-116
MDA-MB-231 [4] = assay: Antiproliferative activity against human MDA-MB-231 cells assessed as reduction in cell viability; type: functional, cell-based
HT-29 = assay: Antiproliferative activity against human HT-29 cells assessed as reduction in cell viability; type: functional, cell-based
K562 = assay: Antiproliferative activity against human K562 cells; type: functional, cell-based
PC-3 = assay: Antiproliferative activity against human PC-3 cells; type: functional, cell-based
A-431 = assay: Antiproliferative activity against human A-431 cells; type: functional, cell-based
MDA-MB-231 [5] = assay: Antiproliferative activity against human MDA-MB-231 cells; type: functional, cell-based; conditions: Homo sapiens, MDA-MB-231
COLO 205 = assay: Antiproliferative activity against human COLO 205 cells; type: functional, cell-based
HEK293 = assay: Antiproliferative activity against human HEK293 cells; type: functional, cell-based
A549 = assay: Antiproliferative activity against human A549 cells; type: functional, cell-based
MV4-11 = assay: Antiproliferative activity against human MV4-11 cells; type: functional, cell-based
HCT-116 [6] = assay: Antiproliferative activity against human HCT-116 cells; type: functional, cell-based
KB = assay: Antiproliferative activity against human KB cells; type: functional, cell-based
HepG2 = assay: Antiproliferative activity against human HepG2 cells; type: functional, cell-based

C[C@H]1[C@H](OC(=O)CCC(=O)N2CCN(c3ccccc3)CC2)O[C@@H]2O[C@]3(C)CC[C@H]4[C@H](C)CC[C@@H]1[C@@]24OO3
231 nM: GI50 [1] | GI50 (HL-60) | GI50 (P388/ADR)

CCOC(=O)c1cc2cccc(OCc3cn(CCCO[C@@H]4O[C@@H]5O[C@@]6(C)CC[C@H]7[C@H](C)CC[C@@H]([C@H]4C)[C@@]57OO6)nn3)c2oc1=O
430 nM: IC50 [2] | IC50 (HCT-116 [3]) | IC50 (MDA-MB-231 [4]) | IC50 (HT-29)

COc1cccc2c1C(=O)c1c(O)c3c(c(O)c1C2=O)C[C@@](O)(C(=O)CO)C[C@@H]3O[C@H]1C[C@H](N)[C@H](O)[C@H](C)O1 [DOXORUBICIN]
50 nM: IC50 (HCT-116 [3]) | IC50 (MDA-MB-231 [4]) | IC50 (HT-29)
8.7 nM: GI50 [1] | GI50 (HL-60)
1.43 µM: IC50 (K562) | IC50 (PC-3) | IC50 (A-431) | IC50 (MDA-MB-231 [5]) | IC50 (COLO 205) | IC50 (HEK293)
3730 nM: GI50 (P388/ADR)

Cc1c(Cl)c(=O)oc2c(OCc3cn(CCCO[C@@H]4O[C@@H]5O[C@@]6(C)CC[C@H]7[C@H](C)CC[C@@H]([C@H]4C)[C@@]57OO6)nn3)cccc12
430 nM: IC50 [2] | IC50 (HCT-116 [3]) | IC50 (MDA-MB-231 [4]) | IC50 (HT-29)

CC(=O)c1cccc(-n2cc(CO[C@H]3O[C@@H]4O[C@]5(C)OO[C@]46[C@@H](CC[C@@H](C)[C@@H]6C[C@H]5O)[C@H]3C)nn2)c1
25.3 µM: IC50 (A549) | IC50 (K562) | IC50 (PC-3) | IC50 (A-431) | IC50 (MDA-MB-231 [5]) | IC50 (COLO 205) | IC50 (HEK293)

Cc1c(Cl)c(=O)oc2c(OCc3cn(CCO[C@@H]4O[C@@H]5O[C@@]6(C)CC[C@H]7[C@H](C)CC[C@@H]([C@H]4C)[C@@]57OO6)nn3)cccc12
430 nM: IC50 [2] | IC50 (HCT-116 [3]) | IC50 (MDA-MB-231 [4]) | IC50 (HT-29)

CCOC(=O)c1cc2cccc(OCc3cn(CCO[C@@H]4O[C@@H]5O[C@@]6(C)CC[C@H]7[C@H](C)CC[C@@H]([C@H]4C)[C@@]57OO6)nn3)c2oc1=O
430 nM: IC50 [2] | IC50 (HCT-116 [3]) | IC50 (MDA-MB-231 [4]) | IC50 (HT-29)

C[C@H]1[C@H](OCCn2cc(COc3cccc4c(C(F)(F)F)cc(=O)oc34)nn2)O[C@@H]2O[C@@]3(C)CC[C@H]4[C@H](C)CC[C@@H]1[C@@]24OO3
430 nM: IC50 [2] | IC50 (HCT-116 [3]) | IC50 (MDA-MB-231 [4]) | IC50 (HT-29)

CCN1CCN(C(=O)CCC(=O)O[C@@H]2O[C@@H]3O[C@]4(C)CC[C@H]5[C@H](C)CC[C@@H]([C@H]2C)[C@@]35OO4)CC1
231 nM: GI50 [1] | GI50 (HL-60) | GI50 (P388/ADR)

C[C@H]1[C@@H](Oc2ccc(C(=O)N3CCN(c4ccccc4)CC3)cc2)O[C@@H]2O[C@@]3(C)CC[C@H]4[C@H](C)CC[C@@H]1[C@@]24OO3
22.1 nM: GI50 [1] | GI50 (P388/ADR)

Cc1cc(=O)oc2c(OCc3cn(CCO[C@@H]4O[C@@H]5O[C@@]6(C)CC[C@H]7[C@H](C)CC[C@@H]([C@H]4C)[C@@]57OO6)nn3)cccc12
430 nM: IC50 [2] | IC50 (HCT-116 [3]) | IC50 (MDA-MB-231 [4]) | IC50 (HT-29)

C[C@H]1[C@@H](OCCn2cc(COc3ccc(C=O)c(O)c3)nn2)O[C@@H]2O[C@@]3(C)CC[C@H]4[C@H](C)CC[C@@H]1[C@@]24OO3
18 µM: IC50 (A549) | IC50 (K562) | IC50 (PC-3) | IC50 (A-431) | IC50 (MDA-MB-231 [5]) | IC50 (COLO 205) | IC50 (HEK293)

COC(=O)c1ccc2c(c1)c(NCC(O)CNC(=O)CCC(=O)O[C@H]1O[C@@H]3O[C@@]4(C)CC[C@H]5[C@H](C)CC[C@@H]([C@H]1C)[C@@]35OO4)c1c3ccccc3nc-1n2C (some centres undefined)
0.072 µM: IC50 (A549)
72 nM: IC50 (MV4-11) | IC50 (HCT-116 [6])

Cc1cn(C2C[C@H](n3cc(CNC(=O)C(C)CC(=O)O[C@@H]4O[C@@H]5O[C@@]6(C)CC[C@H]7[C@H](C)CC[C@@H]([C@H]4C)[C@@]57OO6)nn3)[C@@H](CO)O2)c(=O)[nH]c1=O (single isomer, unassigned)
47.6 µM: IC50 (KB) | IC50 (HepG2)

Cc1cn(C2C[C@H](n3cc(COC(=O)CCC(=O)O[C@@H]4O[C@@H]5O[C@@]6(C)CC[C@H]7[C@H](C)CC[C@@H]([C@H]4C)[C@@]57OO6)nn3)[C@@H](CO)O2)c(=O)[nH]c1=O (single isomer, unassigned)
16.5 µM: IC50 (KB) | IC50 (HepG2)

C[C@H]1[C@@H](OCC(O)Cn2cc(-c3cccc(N)c3)nn2)O[C@@H]2O[C@@]3(C)CC[C@H]4[C@H](C)CC[C@@H]1[C@@]24OO3 (some centres undefined)
12.5 µM: IC50 (KB)
32.9 µM: IC50 (HepG2)

CC(=O)c1ccccc1-n1cc(CO[C@H]2O[C@@H]3O[C@]4(C)OO[C@]35[C@@H](CC[C@@H](C)[C@@H]5C[C@H]4O)[C@H]2C)nn1
25.3 µM: IC50 (A549) | IC50 (K562) | IC50 (PC-3) | IC50 (A-431) | IC50 (MDA-MB-231 [5]) | IC50 (COLO 205) | IC50 (HEK293)

From ChEMBL document CHEMBL5244230, “Artemisinin-derived hybrids and their anticancer activity” (Eur J Med Chem, 2020)
